Article PMC10176470, “Engaging a Non-catalytic Cysteine Residue Drives Potent and Selective Inhibition of Caspase-6” (Journal of the American Chemical Society, 2023)

Assays:
[1] = molecular target: caspase-2 (C2) (Homo sapiens, UniProt P42575); experiment: Caspase-2 biochemical activity assay with fluorogenic substrate
Excerpt: (§1) Error bars represent the standard deviation of thre replicate measurements. […] Activity measured by the cleavage of aminofluorocoumarin-labeled peptides (see the Supporting Information for sequences). C = caspase.

[2] = molecular target: T1, caspase-3 (C3) (Homo sapiens, UniProt P42574); experiment: Caspase-3 biochemical activity assay with fluorogenic substrate
T1 sequence (P42574 29-175 limits assumed): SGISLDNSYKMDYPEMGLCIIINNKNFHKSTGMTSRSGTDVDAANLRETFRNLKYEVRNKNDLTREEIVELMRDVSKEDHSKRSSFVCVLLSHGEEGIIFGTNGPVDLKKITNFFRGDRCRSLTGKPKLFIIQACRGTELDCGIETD
Excerpt: as §1

[3] = test system: human caspases C1–C10; experiment: Caspase selectivity assays (Eurofins/Panlabs), 10 µM 3a; format: biochemical; settings: 3a at 10 μM
[4] = molecular target: proteins of HEK293T cells transiently overexpressing caspase-6 (Homo sapiens, UniProt P62280); experiment: SILAC proteomics / in-gel fluorescence, competition of probe 13-t labeling by 3a; settings: Comp; protein RPS11 P62280
Protocol: (§2) Cells were lysed, and heavy and light SILAC lysates were combined in a 1:1 ratio and subjected to CuAAC reaction with azido-biotin to biotinylate probe-labeled proteins for subsequent capture on streptavidin-coated beads. Bead-bound proteins were split for analysis by in-gel fluorescence and tryptic digestion on-bead for LC–MS/MS analysis.
(§3) SILAC labeling and alkyne probe treatment: HEK293T cells were seeded into 8x 15 cm plates at
(§4) a density of 500,000 cells/plate. 4 of these plates were grown in light SILAC DMEM and 4 were
(§5) grown in heavy SILAC DMEM all containing 10% FBS and 4.5g/L glucose. The next day, all 8
(§6) plates were transfected with a pCMV6-Entry plasmid coding for caspase-6-myc-DDK lacking the
(§7) prodomain. After 24 hours, media was replaced with fresh SILAC growth media containing 4.5 g/L
(§8) glucose and 3% FBS. 24 hours later the plates were treated with probe and inhibitor for 1 hours as
(§9) follows: 2 of the light plates were treated with vehicle, 2 light plates and 2 heavy plates treated with
(§10) for 60 minutes. After treatment, media was removed, and cells were washed with 15 mL PBS for 5
(§11) minutes. Cells were then harvested by scraping in cold PBS and lysed in the presence of Roche
(§12) complete protease inhibitors. Lysates were clarified by centrifugation at 10,000xg for 10 minutes and
(§13) the protein in the supernatant was quantified by BCA assay.
(§14) Proteomics assay: 1 mg of each lysate was diluted to 2mg/ml in PBS with Roche complete protease
(§15) inhibitors. To this was added 0.1 mM biotin-azide, 1 mM tris(2-carboxyethyl)phosphine (TCEP), 0.1
(§16) mM Tris((1-benzyl-4-triazolyl)methyl)amine (TBTA) ligand, and 1 mM CuSO4 in a final volume of
(§17) 0.5 mL. The reaction was incubated at room temperature for 1 hour and was vortexed every 15
(§18) minutes. After 1 hour, proteins are precipitated and are pelleted by centrifuging at 16,000xg for 4
(§19) min at 4 °C. The supernatants were discarded, and the pellets were solubilized with 0.5 mL cold
(§20) The cold methanol wash was then repeated, and the washed
(§21) pellets were resuspended in 1 mL of 1.2% SDS and sonicated until clear. The samples were heat
(§22) denatured at 80-90 °C for 5 minutes and any insoluble particles were removed by centrifugation at
(§23) 6,500xg for 5 minutes. The 1 mL supernatant was transferred to a 15 mL conical tubes containing 5
(§24) mL of PBS and 150 µL of washed neutravidin beads were added. The samples were incubated for 2
(§25) hours at 4 °C while rotating, at which point the samples were warmed to resolubilize any precipitated
(§26) SDS. The beads were pelleted by centrifugation at 1400xg for 3 min and washed for 10 minutes with
(§27) the following solutions: 2x 1% NP-40, 2x PBS + 1 M NaCl, and 2x 50 mM ammonium bicarbonate
(§28) (ABC) + 2 M urea. The beads were then transferred to a 1.5 mL microcentrifuge tube using 2x250
(§29) µL 100 mM Tris pH 8.0 + 4 M Guanidium hydrochloride (final volume 500 µL).

[5] = molecular target: proteins of HEK293T cells transiently overexpressing caspase-6 (Homo sapiens, UniProt O00571); experiment: as above
Protocol: as §2, §3, §4, §5, §6, §7, §8, §9, §10, §11, §12, §13, §14, §15, §16, §17, §18, §19, §20, §21, §22, §23, §24, §25, §26, §27, §28, §29

[6] = molecular target: proteins of HEK293T cells transiently overexpressing caspase-6 (Homo sapiens, UniProt P10809); experiment: as above; settings: Comp; protein HSPD1 P10809
Protocol: as §2, §3, §4, §5, §6, §7, §8, §9, §10, §11, §12, §13, §14, §15, §16, §17, §18, §19, §20, §21, §22, §23, §24, §25, §26, §27, §28, §29

[7] = molecular target: T2, proteins of HEK293T cells transiently overexpressing caspase-6 (Homo sapiens, UniProt Q8WUM4); experiment: as above
T2 sequence (Q8WUM4 1-868): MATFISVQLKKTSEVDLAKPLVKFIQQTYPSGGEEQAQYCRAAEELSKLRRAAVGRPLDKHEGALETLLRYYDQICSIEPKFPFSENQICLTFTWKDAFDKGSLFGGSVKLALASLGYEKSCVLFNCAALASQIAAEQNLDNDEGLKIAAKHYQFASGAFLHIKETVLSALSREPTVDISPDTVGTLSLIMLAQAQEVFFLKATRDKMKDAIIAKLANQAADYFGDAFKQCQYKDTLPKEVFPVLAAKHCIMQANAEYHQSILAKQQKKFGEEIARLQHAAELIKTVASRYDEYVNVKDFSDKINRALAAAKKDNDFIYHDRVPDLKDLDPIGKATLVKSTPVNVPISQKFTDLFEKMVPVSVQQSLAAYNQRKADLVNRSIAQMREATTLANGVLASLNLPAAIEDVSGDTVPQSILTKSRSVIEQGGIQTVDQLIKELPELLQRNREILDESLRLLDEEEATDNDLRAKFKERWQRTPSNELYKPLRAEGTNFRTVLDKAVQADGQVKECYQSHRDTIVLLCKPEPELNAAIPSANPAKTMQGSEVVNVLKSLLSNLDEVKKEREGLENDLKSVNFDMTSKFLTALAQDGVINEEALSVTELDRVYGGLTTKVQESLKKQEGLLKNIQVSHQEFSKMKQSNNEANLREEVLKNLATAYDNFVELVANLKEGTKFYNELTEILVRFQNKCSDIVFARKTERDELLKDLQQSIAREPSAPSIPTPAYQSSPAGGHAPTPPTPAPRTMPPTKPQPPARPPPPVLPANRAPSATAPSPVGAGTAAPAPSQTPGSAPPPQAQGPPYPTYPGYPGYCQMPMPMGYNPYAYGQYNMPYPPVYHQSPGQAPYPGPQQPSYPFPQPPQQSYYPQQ
Protocol: as §2, §3, §4, §5, §6, §7, §8, §9, §10, §11, §12, §13, §14, §15, §16, §17, §18, §19, §20, §21, §22, §23, §24, §25, §26, §27, §28, §29

[8] = molecular target: proteins of HEK293T cells transiently overexpressing caspase-6 (Homo sapiens, UniProt P62906); experiment: as above; settings: Comp; protein RPL10A P62906
Protocol: as §2, §3, §4, §5, §6, §7, §8, §9, §10, §11, §12, §13, §14, §15, §16, §17, §18, §19, §20, §21, §22, §23, §24, §25, §26, §27, §28, §29

[9] = molecular target: proteins of HEK293T cells transiently overexpressing caspase-6 (Homo sapiens, UniProt O00299); experiment: as above; settings: Comp; protein CLIC1 O00299
Protocol: as §2, §3, §4, §5, §6, §7, §8, §9, §10, §11, §12, §13, §14, §15, §16, §17, §18, §19, §20, §21, §22, §23, §24, §25, §26, §27, §28, §29

[10] = molecular target: proteins of HEK293T cells transiently overexpressing caspase-6 (Homo sapiens, UniProt Q04917); experiment: as above; settings: Comp; protein YWHAH Q04917
Protocol: as §2, §3, §4, §5, §6, §7, §8, §9, §10, §11, §12, §13, §14, §15, §16, §17, §18, §19, §20, §21, §22, §23, §24, §25, §26, §27, §28, §29

[11] = molecular target: proteins of HEK293T cells transiently overexpressing caspase-6 (Homo sapiens, UniProt P27635); experiment: as above; settings: Comp; protein RPL10 P27635
Protocol: as §2, §3, §4, §5, §6, §7, §8, §9, §10, §11, §12, §13, §14, §15, §16, §17, §18, §19, §20, §21, §22, §23, §24, §25, §26, §27, §28, §29

[12] = molecular target: proteins of HEK293T cells transiently overexpressing caspase-6 (Homo sapiens, UniProt O14980); experiment: as above; settings: Comp; protein XPO1 O14980
Protocol: as §2, §3, §4, §5, §6, §7, §8, §9, §10, §11, §12, §13, §14, §15, §16, §17, §18, §19, §20, §21, §22, §23, §24, §25, §26, §27, §28, §29

[13] = molecular target: T3, proteins of HEK293T cells transiently overexpressing caspase-6 (Homo sapiens, UniProt P40926); experiment: as above; settings: Comp; protein MDH2 P40926
T3 sequence (P40926 25-338): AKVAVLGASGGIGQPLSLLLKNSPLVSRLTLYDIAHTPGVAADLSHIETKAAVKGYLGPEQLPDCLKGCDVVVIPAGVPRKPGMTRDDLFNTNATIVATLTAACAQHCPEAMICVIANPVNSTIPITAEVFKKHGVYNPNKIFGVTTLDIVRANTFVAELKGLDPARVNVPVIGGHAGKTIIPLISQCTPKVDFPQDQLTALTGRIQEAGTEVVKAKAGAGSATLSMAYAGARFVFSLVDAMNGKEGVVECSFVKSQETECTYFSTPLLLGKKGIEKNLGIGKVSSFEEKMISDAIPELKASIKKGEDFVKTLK
Protocol: as §2, §3, §4, §5, §6, §7, §8, §9, §10, §11, §12, §13, §14, §15, §16, §17, §18, §19, §20, §21, §22, §23, §24, §25, §26, §27, §28, §29

[14] = molecular target: proteins of HEK293T cells transiently overexpressing caspase-6 (Homo sapiens, UniProt P14868); experiment: as above; settings: Comp; protein DARS P14868
Protocol: as §2, §3, §4, §5, §6, §7, §8, §9, §10, §11, §12, §13, §14, §15, §16, §17, §18, §19, §20, §21, §22, §23, §24, §25, §26, §27, §28, §29

[15] = protein DDX3X (O00571), Exp Comp, analysis C6, p 0.1250, 4 peptides
[16] = protein PDCD6IP (Q8WUM4), Exp Comp, analysis C6, p 0.5000, 2 peptides

Sequence of proteins of HEK293T cells transiently overexpressing caspase-6 (Homo sapiens, UniProt O00571) (O00571 whole entry): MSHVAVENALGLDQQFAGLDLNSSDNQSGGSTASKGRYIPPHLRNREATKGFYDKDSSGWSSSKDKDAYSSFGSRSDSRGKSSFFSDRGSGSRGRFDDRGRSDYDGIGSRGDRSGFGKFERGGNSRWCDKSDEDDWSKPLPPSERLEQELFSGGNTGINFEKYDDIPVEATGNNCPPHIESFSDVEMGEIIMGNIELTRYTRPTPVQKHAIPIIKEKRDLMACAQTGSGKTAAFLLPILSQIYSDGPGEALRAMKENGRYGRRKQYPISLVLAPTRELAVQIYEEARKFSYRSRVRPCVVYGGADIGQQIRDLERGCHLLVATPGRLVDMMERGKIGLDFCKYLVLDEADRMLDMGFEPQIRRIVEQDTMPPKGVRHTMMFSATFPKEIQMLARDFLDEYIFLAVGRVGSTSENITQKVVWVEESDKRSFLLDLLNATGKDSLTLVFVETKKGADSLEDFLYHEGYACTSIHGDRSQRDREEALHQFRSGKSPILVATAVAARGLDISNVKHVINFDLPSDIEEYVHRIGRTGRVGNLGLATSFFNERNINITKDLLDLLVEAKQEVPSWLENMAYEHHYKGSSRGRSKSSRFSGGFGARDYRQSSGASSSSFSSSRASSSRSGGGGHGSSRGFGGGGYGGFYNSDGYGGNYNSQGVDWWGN
Sequence of proteins of HEK293T cells transiently overexpressing caspase-6 (Homo sapiens, UniProt Q04917) (Q04917 whole entry): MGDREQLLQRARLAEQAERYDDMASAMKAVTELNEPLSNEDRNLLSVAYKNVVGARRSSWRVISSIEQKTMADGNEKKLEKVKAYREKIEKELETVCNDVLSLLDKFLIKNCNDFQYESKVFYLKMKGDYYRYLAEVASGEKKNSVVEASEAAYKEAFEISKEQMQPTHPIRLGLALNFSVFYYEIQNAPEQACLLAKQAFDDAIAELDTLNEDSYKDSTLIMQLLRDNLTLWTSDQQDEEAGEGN
Sequence of proteins of HEK293T cells transiently overexpressing caspase-6 (Homo sapiens, UniProt P14868) (P14868 whole entry): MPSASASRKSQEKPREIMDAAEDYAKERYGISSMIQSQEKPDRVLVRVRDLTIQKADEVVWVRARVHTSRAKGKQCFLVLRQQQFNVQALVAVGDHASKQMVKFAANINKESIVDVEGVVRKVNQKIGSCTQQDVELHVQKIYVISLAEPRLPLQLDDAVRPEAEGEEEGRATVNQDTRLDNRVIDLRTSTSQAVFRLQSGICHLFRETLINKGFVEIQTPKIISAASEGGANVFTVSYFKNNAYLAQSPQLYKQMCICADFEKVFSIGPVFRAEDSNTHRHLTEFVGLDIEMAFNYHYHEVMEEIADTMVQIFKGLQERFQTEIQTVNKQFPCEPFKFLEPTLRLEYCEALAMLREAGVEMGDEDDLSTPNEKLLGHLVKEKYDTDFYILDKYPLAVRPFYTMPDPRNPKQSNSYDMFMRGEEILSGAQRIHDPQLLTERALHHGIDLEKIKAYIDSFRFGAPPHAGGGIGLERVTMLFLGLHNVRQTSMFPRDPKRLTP
Sequence of proteins of HEK293T cells transiently overexpressing caspase-6 (Homo sapiens, UniProt P10809) (P10809 27-573): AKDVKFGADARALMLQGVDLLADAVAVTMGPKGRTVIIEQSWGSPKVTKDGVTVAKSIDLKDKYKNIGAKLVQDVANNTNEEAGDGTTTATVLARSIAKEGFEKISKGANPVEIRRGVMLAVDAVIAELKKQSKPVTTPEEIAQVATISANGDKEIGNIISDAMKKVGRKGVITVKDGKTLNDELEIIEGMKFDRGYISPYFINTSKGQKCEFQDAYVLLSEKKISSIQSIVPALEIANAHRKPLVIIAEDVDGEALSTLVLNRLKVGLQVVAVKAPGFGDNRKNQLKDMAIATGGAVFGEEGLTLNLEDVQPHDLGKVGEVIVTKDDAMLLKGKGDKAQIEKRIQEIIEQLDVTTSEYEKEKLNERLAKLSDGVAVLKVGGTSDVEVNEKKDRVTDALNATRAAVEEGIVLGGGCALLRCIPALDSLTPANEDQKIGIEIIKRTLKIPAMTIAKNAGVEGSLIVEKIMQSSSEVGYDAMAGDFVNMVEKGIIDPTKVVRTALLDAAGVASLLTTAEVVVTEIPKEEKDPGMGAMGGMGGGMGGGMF
Sequence of proteins of HEK293T cells transiently overexpressing caspase-6 (Homo sapiens, UniProt O14980) (O14980 whole entry): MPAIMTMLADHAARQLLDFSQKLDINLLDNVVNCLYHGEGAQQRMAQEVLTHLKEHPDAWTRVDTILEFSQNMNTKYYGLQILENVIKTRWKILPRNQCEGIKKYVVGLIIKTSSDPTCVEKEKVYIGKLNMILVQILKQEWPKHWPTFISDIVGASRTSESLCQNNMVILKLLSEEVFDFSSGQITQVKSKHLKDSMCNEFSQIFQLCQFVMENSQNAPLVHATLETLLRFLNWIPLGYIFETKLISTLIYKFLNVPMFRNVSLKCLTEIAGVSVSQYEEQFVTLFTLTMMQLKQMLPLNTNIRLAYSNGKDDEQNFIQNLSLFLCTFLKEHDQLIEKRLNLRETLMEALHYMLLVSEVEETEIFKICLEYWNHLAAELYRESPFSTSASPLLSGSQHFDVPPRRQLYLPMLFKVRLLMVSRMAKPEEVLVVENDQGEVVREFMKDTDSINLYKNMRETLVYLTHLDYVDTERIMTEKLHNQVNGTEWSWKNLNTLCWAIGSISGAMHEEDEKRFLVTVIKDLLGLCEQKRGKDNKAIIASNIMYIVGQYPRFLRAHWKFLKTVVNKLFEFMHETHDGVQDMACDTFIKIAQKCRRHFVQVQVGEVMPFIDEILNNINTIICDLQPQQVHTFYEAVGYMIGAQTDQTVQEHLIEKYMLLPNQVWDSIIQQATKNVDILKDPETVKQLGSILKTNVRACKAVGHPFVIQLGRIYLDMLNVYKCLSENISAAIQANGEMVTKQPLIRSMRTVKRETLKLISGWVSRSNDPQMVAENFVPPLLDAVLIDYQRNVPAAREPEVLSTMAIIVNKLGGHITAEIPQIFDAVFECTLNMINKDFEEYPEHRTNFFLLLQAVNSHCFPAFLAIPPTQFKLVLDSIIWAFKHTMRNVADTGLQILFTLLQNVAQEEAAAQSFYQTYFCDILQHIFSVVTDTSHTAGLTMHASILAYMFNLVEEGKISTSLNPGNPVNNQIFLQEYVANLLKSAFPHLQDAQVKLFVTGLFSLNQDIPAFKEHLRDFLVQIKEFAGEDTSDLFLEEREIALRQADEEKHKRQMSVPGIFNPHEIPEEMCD
Sequence of caspase-2 (C2) (P42575 whole entry): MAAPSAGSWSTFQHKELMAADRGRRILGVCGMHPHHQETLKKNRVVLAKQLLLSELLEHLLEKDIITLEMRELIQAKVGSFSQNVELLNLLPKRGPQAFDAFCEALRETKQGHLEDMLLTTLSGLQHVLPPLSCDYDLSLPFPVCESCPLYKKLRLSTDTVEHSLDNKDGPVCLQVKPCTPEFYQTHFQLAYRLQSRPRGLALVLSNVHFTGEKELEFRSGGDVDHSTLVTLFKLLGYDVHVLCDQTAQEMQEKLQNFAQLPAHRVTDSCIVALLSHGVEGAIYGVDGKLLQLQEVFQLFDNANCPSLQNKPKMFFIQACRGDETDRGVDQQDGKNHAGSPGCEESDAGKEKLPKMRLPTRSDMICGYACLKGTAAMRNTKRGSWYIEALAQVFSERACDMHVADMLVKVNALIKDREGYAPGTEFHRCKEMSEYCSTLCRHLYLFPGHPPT

C=CS(=O)(=O)N1C[C@H](C(=O)Nc2ccc(OC(F)(F)F)cc2)C[C@@H](c2ccccc2)C1 [3a]
activity against C2 (in words) [1]: lack of activity | activity against C3 (in words) [2]: lack of activity | IC50 ([2]; read-out: Casp-3 IC50): > 500 µM | effect on the other caspase isoforms (in words) [3]: little, if any, effect | enrich.exp.med [4]: 0.7926 | enrich.exp.med ([5]; Comp, protein DDX3X O00571): 1.089 | enrich.exp.med.lin [5, 15]: 2.128 | enrich.exp.med.log2 [5, 15]: 1.089 | enrich.exp.med [6]: 0.6402 | enrich.exp.med ([7]; Comp, protein PDCD6IP Q8WUM4): 1 | enrich.exp.med.lin [7, 16]: 2 | enrich.exp.med.log2 [7, 16]: 1 | enrich.exp.med [8]: 0.678 | enrich.exp.med [9]: 0.583 | enrich.exp.med [10]: 0.8526 | enrich.exp.med [11]: 0.809 | enrich.exp.med [12]: 0.6797 | enrich.exp.med [13]: 0.5931 | enrich.exp.med [14]: 0.8565
